This note sets out measurements from patent publication US8637536B2, “Pyrimidinone compounds for use in the treatment of diseases or conditions mediated by Lp-PLA2” (Glaxo Group Limited, priority 2010, dated 2014).

Assay [1] deals with T1, Lp-PLA2 from plasma (pooled human plasma) (Homo sapiens, UniProt Q13093).
T1 construct: 8 μL pooled human plasma; from tissue; host or cells: pooled human plasma
T1 sequence (Q13093 22-441): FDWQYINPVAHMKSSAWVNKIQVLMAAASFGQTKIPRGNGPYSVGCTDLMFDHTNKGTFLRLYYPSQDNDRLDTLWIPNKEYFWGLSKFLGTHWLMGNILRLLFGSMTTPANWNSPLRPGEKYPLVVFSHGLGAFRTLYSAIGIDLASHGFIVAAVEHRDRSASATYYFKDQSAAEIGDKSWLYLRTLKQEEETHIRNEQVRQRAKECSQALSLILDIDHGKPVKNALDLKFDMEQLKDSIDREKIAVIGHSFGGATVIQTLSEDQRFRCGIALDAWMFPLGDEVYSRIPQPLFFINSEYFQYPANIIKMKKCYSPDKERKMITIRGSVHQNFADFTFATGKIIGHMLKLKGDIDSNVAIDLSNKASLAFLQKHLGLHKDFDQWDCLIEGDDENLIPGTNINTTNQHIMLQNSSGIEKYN
Description: Lp-PLA2 human plasma assay (Thio-PAF assay). Type of assay: biochemical. The settings on record: text thresholds, read-out: pIC50 values in the thio-PAF assay (converted). In outline: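 Pooled human plasma preincubated 30 min with compound, then thio-PAF substrate with NEM and CPM added in pH 7.4 HEPES/NaCl/CHAPS buffer; reaction 2 min at room temperature, quenched with 5% TFA, fluorescence read at ex 380/em 485 after 40 min; pIC50 from curve fitting.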

Assay [2] has as its target T2, recombinant human Lp-PLA2 (Homo sapiens, UniProt Q13093).
T2 sequence (Q13093 22-441): T1 sequence (Q13093 22-441)
As to the kind of experiment: Recombinant human Lp-PLA2 assay (rhLp-PLA2, PED6 assay). The format is biochemical.

Setting [3] is: text thresholds, upper limit for pIC50 in this assay is 9.3, read-out: pIC50 values in the PED6 assay (converted).

The structures appear in SMILES notation. Like-named read-outs stand apart in the source and are kept apart here.

Consider `Cc1nnc(Cc2c[nH]c(OCCc3ccc(Oc4ccc(Cl)c(C(F)(F)F)c4)cc3)nc2=O)o1` [E134, 2-{[2-(4-{[4-chloro-3-(trifluoromethyl)phenyl]oxy}phenyl)ethyl]oxy}-5-[(5-methyl-1,3,4-oxadiazol-2-yl)methyl]-4(1H)-pyrimidinone], for which the IC50 in assay [1] was not above 0.1 µM; in assay [2] (setting [3]) it was not above 0.01 µM; in assay [2] (upper limit for pIC50 obtained in this PED6 assay is 9.3, read-out: rhLp-PLA2 (PED6 assay) (pIC50) (converted)), 0.00251 µM.

Take `Cn1cc(Cc2cncnc2)c(=O)nc1OCCc1ccc(Oc2ccc(Cl)c(C(F)(F)F)c2)c(F)c1` [E141, 2-{[2-(4-{[4-chloro-3-(trifluoromethyl)phenyl]oxy}-3-fluorophenyl)ethyl]oxy}-1-methyl-5-(5-pyrimidinylmethyl)-4(1H)-pyrimidinone]: the results for the IC50 in assay [1] and in assay [2] (setting [3]) were not above 0.1 µM and not above 0.001 µM, respectively.

As for `COc1ncc(Cc2c[nH]c(OCCc3ccc(Oc4cnc(C(F)(F)F)nc4)cc3)nc2=O)cn1` [E143, 5-{[2-(methyloxy)-5-pyrimidinyl]methyl}-2-{[2-(4-{[2-(trifluoromethyl)-5-pyrimidinyl]oxy}phenyl)ethyl]oxy}-4(1H)-pyrimidinone], the results for the IC50 in assay [1] and in assay [2] (setting [3]) were not above 1 µM and not above 0.01 µM, respectively.

On to `Cc1ccc(Oc2ccc(CCOc3nc(=O)c(Cc4cncnc4)c[nH]3)cc2)cc1Cl` [E150, 2-[(2-{4-[(3-chloro-4-methylphenyl)oxy]phenyl}ethyl)oxy]-5-[pyrimidin-5-ylmethyl]-4(1H)-pyrimidinone], for which the results for the IC50 in assay [1] and in assay [2] (setting [3]) were not above 0.1 µM and not above 0.001 µM, respectively.

For the compound `COc1ncc(Cc2c[nH]c(OCCc3ccc(Oc4ccc(C)c(Cl)c4)cc3)nc2=O)cn1` [E151, 2-[(2-{4-[(3-chloro-4-methylphenyl)oxy]phenyl}ethyl)oxy]-5-{[2-(methyloxy)-5-pyrimidinyl]methyl}-4(1H)-pyrimidinone], the IC50 in assay [1] was not above 0.1 µM; in assay [2] (setting [3]) it was not above 0.001 µM.

Turning to `COc1ncc(Cc2c[nH]c(OCCc3ccc(Oc4ccc(Cl)c(C(F)(F)F)n4)cc3)nc2=O)cn1` [E161, 2-(4-((5-chloro-6-(trifluoromethyl)pyridin-2-yl)oxy)phenethoxy)-5-((2-methoxypyrimidin-5-yl)methyl)pyrimidin-4(1H)-one], the IC50 was not above 1 µM in assay [1] and not above 0.01 µM in assay [2] (setting [3]).

As to `Cn1cc(Cc2c[nH]c(OCCc3ccc(Oc4cc(Cl)cc(C(F)(F)F)c4)cc3)nc2=O)cn1` [E162, 2-{[2-(4-{[3-chloro-5-(trifluoromethyl)phenyl]oxy}phenyl)ethyl]oxy}-5-[(1-methyl-1H-pyrazol-4-yl)methyl]-4(1H)-pyrimidinone], the IC50 is not above 0.1 µM in assay [1] and not above 0.01 µM in assay [2] (setting [3]).

Take `COc1ncc(Cc2c[nH]c(OCCc3ccc(Oc4ccc(Cl)c(C(F)(F)F)c4)c(F)c3)nc2=O)cn1` [E172, 2-{[2-(4-{[4-chloro-3-(trifluoromethyl)phenyl]oxy}-3-fluorophenyl)ethyl]oxy}-5-{[2-(methyloxy)-5-pyrimidinyl]methyl}-4(1H)-pyrimidinone]: the IC50 in assay [1] was not above 0.1 µM; in assay [2] (setting [3]), not above 0.001 µM.

On to `O=c1nc(NCCc2ccc(Oc3ccc(F)cc3)cc2)[nH]cc1Cc1cncnc1` [E188, 2-{2-[4-(4-Fluoro-phenoxy)-phenyl]-ethylamino}-5-pyrimidin-5-ylmethyl-1H-pyrimidin-4-one], for which the IC50 in assay [1] is not above 0.1 µM; in assay [2] (setting [3]) it was not above 0.01 µM.

As to `Cc1ncc(Cc2c[nH]c(NCCc3ccc(Oc4ccc(Cl)c(C(F)(F)F)c4)cc3)nc2=O)cn1` [E195, 2-{2-[4-(4-Chloro-3-trifluoromethyl-phenoxy)-phenyl]-ethylamino}-5-(2-methyl-pyrimidin-5-ylmethyl)-1H-pyrimidin-4-one], the results for the IC50 in assay [1] and in assay [2] (setting [3]) were not above 0.1 µM and not above 0.01 µM, respectively.

With `CN(CCc1ccc(Oc2ccc(Cl)c(C(F)(F)F)c2)cc1)c1nc(=O)c(Cc2cncnc2)cn1C` [E196, 2-({2-[4-(4-Chloro-3-trifluoromethyl-phenoxy)-phenyl]-ethyl}-methyl-amino)-1-methyl-5-pyrimidin-5-ylmethyl-1H-pyrimidin-4-one], the results for the IC50 in assay [1] and in assay [2] (setting [3]) were not above 1 µM and not above 0.01 µM, respectively.
